Experiments:
[1] = Storage stability of ointment at 40° C. and 75% RH: content against initial content; type: physicochemical; details: storage at 40° C. and 75% RH 1 month or 25° C. 3 months, Table 5
Description: To confirm the storage stability of the compound represented by formula (II) in the preparation, the content (%) of the compound after a storage at 40° C. and 75% RH against the content at the time of initiation, was determined.
To confirm the storage stability of the compound represented by formula (II) in the preparation, the contents (%) of the compound after storages at 40° C. and 75% RH, and at 50° C. against the content at the time of initiation, was determined.
To confirm the storage stability of the compound represented by formula (II) in the preparation, the contents (%) of the compound after a storage at 40° C. and 75% RH, or at 25° C. against the content at the time of initiation, was determined.

NC/Nga mice = assay: Spontaneous scratching action after ointment application; type: in vivo; details: ointment applied to NC/Nga mice; FIG. 2
Description: [FIG. 2] A graph showing the number of scratching action (average value ±SE, n=8) when a present ointment was applied to NC/Nga mice.
(§1) According to the methods described in the literature (Japanese Laid-open patent publication Nos. 2005-247843 and 2005-247842), measurements of the spontaneous action of scratching and the amount of transdermal water evaporation were performed with regard to the compound represented by formula (II). A test was performed, using ointments prepared in the same manner as in Example 4 to have the compound represented by formula (II) at concentrations of 0.0001% and 0.001%.

[2] = system: BALB/c mice having the skin barrier destroyed by chafing; assay: Transdermal water evaporation (TEWL) after ointment application; type: in vivo; details: ointment applied to BALB/c mice with skin barrier destroyed by chafing, compared with base only; FIG. 3
Description: [FIG. 3] A graph showing the amount of transdermal evaporation of water (TEWL, average value ±SE, n=8) when a present ointment was applied to BALB/c mice having the skin barrier destroyed by chafing.
as §1

- storage stability (in words) [1]: stable in the drugs
Structure (SMILES): O=C(O)CSCCCC[C@@H]1[C@@H](C#C[C@@H](O)C2CCCCC2)[C@H](O)C[C@H]1Cl [compound represented by formula (II)]
- number of scratching action (NC/Nga mice): a decrease in the scratching action
- amount of transdermal evaporation of water (TEWL) [2]: a decrease in the amount of transdermal water evaporation

Source: US20080167379A1, “Ointment” (TAISHO PHARMACEUTICAL CO., LTD., priority 2005, published 2008)
